Data: patent publication US12076373B2, “Formulations for oral administration of active agents” (Entera Bio Ltd., priority 2015, dated 2024)

Columns and labels:
[1] = Dissolution test: release of SNAC from tablet formulations in simulated gastric buffer; type: physicochemical; settings: tablet with 100 mg sodium bicarbonate vs tablet without, trypsin inhibitor, teriparatide, 100 ml simulated gastric buffer without pepsin, pH 2.0, 37° C., USP 23 Apparatus 2, 50 rpm
Procedure: The tablets were in a form of a homogeneous mixture.
Each tablet formulation was subjected to a dissolution test in 100 ml of simulated gastric buffer (without pepsin), pH 2.0, at 37° C., according to USP 23 Apparatus 2 (paddle) with 50 rotations per minute. The amount of released SNAC in each sample was determined chromatographically, using an HPLC apparatus with Cosmosil™ 5 C18-MS-II (4.6 ID×250 mm) column. Mobile phase consisted of 50% acetonitrile and 50% phosphoric acid solution (0.1%). Flow rate was 1 ml/minute and injection volume was 25 μl. Amount of released SNAC was calculated as a percentage of the amount of SNAC in the formulation.

[2] = Open label comparative pharmacokinetic study of oral teriparatide tablet in healthy volunteers; type: in vivo, human; settings: oral tablet 0.75 mg teriparatide + SNAC + SBTI, with 150 ml of 3 mg/ml sodium bicarbonate solution vs 150 ml water; ten healthy volunteers, fasted; plasma
Procedure: An open label comparative pharmacokinetic study was performed on ten healthy volunteers. On different visits, each volunteer received the same oral tablet containing 0.75 mg of teriparatide, a recombinant form of parathyroid hormone (1-34) (PTH(1-34)). In the first visit, the tablet was administered with 150 ml water, whereas in the second visit the tablet was administered with 150 ml of 3 mg/ml sodium bicarbonate aqueous solution.
The formulation was composed of teriparatide (0.75 mg), SNAC (sodium 8-N-(2-hydroxybenzoyl)aminocaprylate), soybean trypsin inhibitor (SBTI) and a small amount of magnesium stearate.
Tablets were administered in the morning after an 8-hour overnight fast. At each visit a standard meal was provided 3 hours after drug administration. […] There was a two week period between the two visits.
To determine PTH(1-34) concentrations, blood samples (4 ml each) were drawn via an indwelling catheter from the forearm vein at predetermined time points during each visit. The cannula was flushed with 1.5 ml normal saline after each sampling. In addition, to avoid sample dilution, 1 ml of blood was drawn and discarded before the next sample. […] PTH(1-34) levels were measured using an IDS-iSYS automated assay for the measurement of intact PTH(1-34) in human plasma or serum. […] Relative absorption was determined based on the AUC (area under curve) parameter.

Row | dissolution of SNAC in tablets (released SNAC as a percentage of the amount of SNAC in the formulation) [1] | increase in absorption of PTH(1-34) (relative absorption based on AUC) [2] | SMILES
1 | considerably enhanced | – | O=C(O)CCCCCCCNC(=O)c1ccccc1O [SNAC, sodium 8-N-(2-hydroxybenzoyl)aminocaprylate]
2 | – | about 35% | CC[C@H](C)[C@H](NC(=O)[C@H](CCC(=O)O)NC(=O)[C@H](CO)NC(=O)[C@@H](NC(=O)[C@@H](N)CO)C(C)C)C(=O)N[C@@H](CCC(N)=O)C(=O)N[C@@H](CC(C)C)C(=O)N[C@@H](CCSC)C(=O)N[C@@H](Cc1cnc[nH]1)C(=O)N[C@@H](CC(N)=O)C(=O)N[C@@H](CC(C)C)C(=O)NCC(=O)N[C@@H](CCCCN)C(=O)N[C@@H](Cc1cnc[nH]1)C(=O)N[C@@H](CC(C)C)C(=O)N[C@@H](CC(N)=O)C(=O)N[C@@H](CO)C(=O)N[C@@H](CCSC)C(=O)N[C@@H](CCC(=O)O)C(=O)N[C@@H](CCCN=C(N)N)C(=O)N[C@H](C(=O)N[C@@H](CCC(=O)O)C(=O)N[C@@H](Cc1c[nH]c2ccccc12)C(=O)N[C@@H](CC(C)C)C(=O)N[C@@H](CCCN=C(N)N)C(=O)N[C@@H](CCCCN)C(=O)N[C@@H](CCCCN)C(=O)N[C@@H](CC(C)C)C(=O)N[C@@H](CCC(N)=O)C(=O)N[C@@H](CC(=O)O)C(=O)N[C@H](C(=O)N[C@@H](Cc1cnc[nH]1)C(=O)N[C@@H](CC(N)=O)C(=O)N[C@@H](Cc1ccccc1)C(=O)O)C(C)C)C(C)C [PTH(1-34), teriparatide]
